Literature values as cited in US7198802B2, “Tablet obtained by direct compression comprising 4-amino-1-hydroxybutylidene-1,1-bisphosphonic acid as active ingredient” (Zentiva A.S., priority 2000, dated 2007).

Details: atmospheric relative humidity

OC[C@@H](O)[C@@H](O)[C@H](O)[C@H](O)CO [mannitol, Mannitol]
relative humidity at which moisture / water content rises: about 98%

OC[C@H]1O[C@@H](O[C@H]2[C@H](O)[C@@H](O)C(O)O[C@@H]2CO)[C@H](O)[C@@H](O)[C@H]1O (some centres unmarked) [Lactose]
relative humidity at which moisture / water content rises: above 90%
